From US20080045582A1, “ENA-78 Gene Polymorphisms and Protein Concentrations as Diagnostic and Prognostic Tools” (priority 2006, published 2008)

Assays:
ENA-78 [1] = test: ENA-78 production by non-stimulated human umbilical vein endothelial cells, multiplex protein measurement; assay type: cell-based
Procedure: (§1) Human umbilical vein endothelial cells were obtained (Clonetics Cell Systems; Cambrex Bio Science Walkersville, Inc., Walkersville, Md.). Approximately 5×10^5 viable cells were seeded in endothelial cell growth-supplemented basal medium (EGM-2-endothelial cell medium-2; Cambrex Bio Science Walkersville, Inc.) and maintained at 37° C. under a 5% carbon dioxide atmosphere per manufacturer's protocol. The culture medium was changed 24 hours after seeding and every 48 hours thereafter until confluence. Cells were then treated with trypsin, seeded in a 48-well culture dish, and incubated under the conditions previously described. Cells used in this Example were from the third passage.
(§2) After cells reached 70-80% confluence in the culture dish, they were allowed to become quiescent in unsupplemented, serum-free medium for 24 hours before treatment and then placed in medium containing 2% fetal bovine serum. Atorvastatin (LKT Laboratories Inc., St. Paul, Minn.) was dissolved in dimethylsulfoxide (Sigma-Aldrich, St. Louis, Mo.). Cells were treated for 24 hours with atorvastatin 1-50 μM alone or with atorvastatin plus mevalonate 250 μM (Sigma-Aldrich). Controls were cells cultured without atorvastatin or atorvastatinmevalonate. […] All experiments were performed in duplicate.
(§3) After treatment, culture-conditioned media were collected, divided into aliquots, and stored at −80° C. for no longer than 7 days until multiplex measurement of chemokines, cytokines, and angiogenic factors was performed.
(§4) The culture-conditioned media protein content of epithelial neutrophil-activating peptide-78 (ENA-78), interleukin-8, (IL-8), monocyte chemotactic protein-1 (MCP-1), interleukin-6 (IL-6), interleukin-10 (IL-10), fibroblast growth factor (FGF), and granulocyte colony-stimulating factor (G-CSF) were measured by means of flow-based immunofluorescence multiplex detection (Fluorokine MAP Human Cytokine Panel; R&D Systems Inc., Minneapolis, Minn.) with the Luminex 100 IS platform (Luminex Corp., Austin, Tex.). Concentrations for each sample were normalized against milligrams of total protein by using a standard bicinchoninic acid protein assay (Pierce Biotechnology, Inc., Rockford, Ill.). Samples were assayed in duplicate.
(§5) Standard curves of best fit for each analyte were generated by plotting the median fluorescence intensities of the analyte standards against their known concentrations by using Beadview multiplex data analysis software version 1 (Upstate, Charlottesville, Va.).
(§6) Differences in biomolecular concentrations were compared by treatment group by applying one-way analysis of variance and a post-hoc Tukey's test as appropriate. The Jonckheere Terpstra test was performed to assess the trend for differences in biomolecular concentrations across concentrations of atorvastatin. […]

IL-8 = IL-8 production by non-stimulated human umbilical vein endothelial cells, multiplex protein measurement; assay type: cell-based
Procedure: as §1, §2, §3, §4, §5
Differences in biomolecular concentrations were compared by treatment group by applying one-way analysis of variance and a post-hoc Tukey's test as appropriate. The Jonckheere Terpstra test was performed to assess the trend for differences in biomolecular concentrations across concentrations of atorvastatin. A p value below 0.05 was considered to indicate a statistically significant difference. Statistical analyses were performed with SPSS software, version 11.5 (SPSS Inc., Chicago, Ill.).

MCP-1 = MCP-1 production by non-stimulated human umbilical vein endothelial cells, multiplex protein measurement; assay type: cell-based
Procedure: as §1, §2, §3, §4, §5, §6

IL-6 = IL-6 production by non-stimulated human umbilical vein endothelial cells, multiplex protein measurement; assay type: cell-based
Procedure: as §1, with “passage. […]” for “passage.”
as §4, with “Concentrations for each sample were normalized against milligrams of total protein by using a standard bicinchoninic acid protein assay (Pierce Biotechnology, Inc., Rockford, Ill.). Samples were assayed in duplicate.” left out

ENA-78 [2] = test: IL-1beta-stimulated ENA-78 production from HUVECs, cytometric immunofluorescence; assay type: cell-based, human; conditions: for ENA-78 production reduced by, compared with IL-1beta-stimulated cells in the absence of AT: AT pre-treatment 2 h before IL-1beta
Procedure: Human umbilical vein endothelial cells (HUVECs) (Clonetics Cell Systems; Cambrex Bio Science Walkersville, Inc., Walkersville, USA) were cultured as previously described. Briefly, HUVECs between passes three and four were seeded at a density of 2.5×10^4 cells per cm^2 and cultured to 80% confluence with endothelial cell growth-supplemented medium (EGM-2-endothelial cell medium-2; Cambrex Bio Science Walkersville, Inc.). Once confluent, media was changed to serum free endothelial basal media (EBM-2-endothelial cell medium-2; Cambrex Bio Science Walkersville, Inc.) for 24 hours prior to treatment, in which EBM-2 media supplemented to a 2% FBS concentration was used. Treatments consisted of atorvastatin calcium (AT; LKT Laboratories Inc., St. […] All were dissolved in molecular grade water. All final DMSO concentrations were less then 0.1%. […] In experiments investigating the impact of AT on IL-1beta-stimulated ENA-78 production, HUVECs were pre-treated with AT followed by IL-1beta stimulation two hours later. […] In a separate set of experiments, cells were cultured with IL-1beta and AT in the presence or absence of mevalonate, FPP, and GGPP to determine whether AT inhibition of ENA-78 production was dependent on HMG-CoA reductase inhibition and subsequent downstream pathways. Cell culture supernates for all experiments were stored at -20° C. until analysis, which was performed within seven days. ENA-78 concentrations were measured and normalized to total protein content in cell culture supernates using cytometric immunofluorescence as previously described. Ribonucleic acid (RNA) was isolated using a commercial kit (RNeasy mini kit, Qiagen Inc., Valencia, USA). Complementary deoxyribonucleic acid (cDNA) conversion was performed by high capacity cDNA reverse transcription (Applied Biosystems, Foster City, USA) per protocol using roughly 2 μg of total RNA. RNA quality was assessed by absorbance (Nanodrop, Nanodrop Technologies, Wilmington, USA). Real-time reverse-transcription PCR (RT-PCR) was done using primer and probe sets for CXCL5 normalized to a housekeeping gene, glyceraldehyde-3-phosphate dehydrogenase (GAPDH; Taqman Gene Expression Assays, Applied Biosystems Inc.). […] PCR for both CXCL5 and GAPDH was performed at the same time using the following conditions: 95° C. for 2 minutes; 35 cycles of 95° C. for 30 seconds, 59° C. for 30 seconds, and 72° C. for 30 seconds; followed by 7 minutes of elongation at 72° C. Statistical differences in normalized protein concentrations and gene expression levels were determined by one way ANOVA and post-hoc Tukey analysis. […] An independent t-test was used to compare treatment differences at the same time points in the dose range analysis. […] Statistical analyses were performed with SPSS software, version 11.5 (SPSS Inc., Chicago, USA).

IL-10 = IL-10 production by non-stimulated human umbilical vein endothelial cells, multiplex protein measurement; assay type: cell-based; conditions: atorvastatin 1-50 μM, 24 hours, FIG. 11B
Procedure: as §1, with “passage. […]” for “passage.”
as §4, with “Concentrations for each sample were normalized against milligrams of total protein by using a standard bicinchoninic acid protein assay (Pierce Biotechnology, Inc., Rockford, Ill.). Samples were assayed in duplicate.” left out

FGF = FGF production by non-stimulated human umbilical vein endothelial cells, multiplex protein measurement; assay type: cell-based; conditions: atorvastatin 1-50 μM, 24 hours, FIG. 12
Procedure: as §1, with “passage. […]” for “passage.”
as §4, with “Concentrations for each sample were normalized against milligrams of total protein by using a standard bicinchoninic acid protein assay (Pierce Biotechnology, Inc., Rockford, Ill.). Samples were assayed in duplicate.” left out

G-CSF = G-CSF production by non-stimulated human umbilical vein endothelial cells, multiplex protein measurement; assay type: cell-based; conditions: atorvastatin 1-50 μM, 24 hours, FIG. 12
Procedure: as §1, with “passage. […]” for “passage.”
as §4, with “Concentrations for each sample were normalized against milligrams of total protein by using a standard bicinchoninic acid protein assay (Pierce Biotechnology, Inc., Rockford, Ill.). Samples were assayed in duplicate.” left out

HUVECs = test: HUVEC viability, trypan blue cell staining; assay type: cell-based, human; conditions: 24 hours of treatment, any dose of AT from 1 uM to 50 uM, FIG. 13
Procedure: Human umbilical vein endothelial cells (HUVECs) (Clonetics Cell Systems; Cambrex Bio Science Walkersville, Inc., Walkersville, USA) were cultured as previously described. Briefly, HUVECs between passes three and four were seeded at a density of 2.5×10^4 cells per cm^2 and cultured to 80% confluence with endothelial cell growth-supplemented medium (EGM-2-endothelial cell medium-2; Cambrex Bio Science Walkersville, Inc.). Once confluent, media was changed to serum free endothelial basal media (EBM-2-endothelial cell medium-2; Cambrex Bio Science Walkersville, Inc.) for 24 hours prior to treatment, in which EBM-2 media supplemented to a 2% FBS concentration was used.
Treatments consisted of atorvastatin calcium (AT; LKT Laboratories Inc., St. Paul, USA) 1-50 μM dissolved in dimethyl sulfoxide (DMSO), IL-1beta, mevalonate, farnesyl pyrophosphate (FPP), and geranylgeranyl pyrophosphate (GGPP) were purchased from Sigma-Aldrich (St. Louis, Mo.), with concentrations of 2 ng/ml, 250 μM, 5 μM, and 5 μM used respectively. All were dissolved in molecular grade water. All final DMSO concentrations were less then 0.1%.
Cell viability was assessed by treating HUVECs with AT 1 μM, 5 μM, 10 μM, 25 μM, and 50 μM using trypan blue cell staining. […]

CXCL5 = CXCL5 gene expression in HUVECs, real-time RT-PCR normalized to GAPDH; assay type: cell-based, human
Procedure: Human umbilical vein endothelial cells (HUVECs) (Clonetics Cell Systems; Cambrex Bio Science Walkersville, Inc., Walkersville, USA) were cultured as previously described. Briefly, HUVECs between passes three and four were seeded at a density of 2.5×10^4 cells per cm^2 and cultured to 80% confluence with endothelial cell growth-supplemented medium (EGM-2-endothelial cell medium-2; Cambrex Bio Science Walkersville, Inc.). Once confluent, media was changed to serum free endothelial basal media (EBM-2-endothelial cell medium-2; Cambrex Bio Science Walkersville, Inc.) for 24 hours prior to treatment, in which EBM-2 media supplemented to a 2% FBS concentration was used. Treatments consisted of atorvastatin calcium (AT; LKT Laboratories Inc., St. […] All were dissolved in molecular grade water. All final DMSO concentrations were less then 0.1%. […] In experiments investigating the impact of AT on IL-1beta-stimulated ENA-78 production, HUVECs were pre-treated with AT followed by IL-1beta stimulation two hours later. […] In a separate set of experiments, cells were cultured with IL-1beta and AT in the presence or absence of mevalonate, FPP, and GGPP to determine whether AT inhibition of ENA-78 production was dependent on HMG-CoA reductase inhibition and subsequent downstream pathways. Cell culture supernates for all experiments were stored at -20° C. until analysis, which was performed within seven days. ENA-78 concentrations were measured and normalized to total protein content in cell culture supernates using cytometric immunofluorescence as previously described. Ribonucleic acid (RNA) was isolated using a commercial kit (RNeasy mini kit, Qiagen Inc., Valencia, USA). […] RNA quality was assessed by absorbance (Nanodrop, Nanodrop Technologies, Wilmington, USA). […] Statistical differences in normalized protein concentrations and gene expression levels were determined by one way ANOVA and post-hoc Tukey analysis. […]

[3] = highest concentration of atorvastatin

mevalonate
effect of mevalonate cotreatment on atorvastatin effect on ENA-78 production (ENA-78 [1]; atorvastatin plus mevalonate 250 μM, 24 hours): reversed
reversal of atorvastatin effects on ENA-78 by mevalonate (ENA-78 [1]; [3]): potentially incomplete reversal
reversal of atorvastatin effects on IL-8 by mevalonate (IL-8; [3]): potentially incomplete reversal
effect of addition of mevalonate on atorvastatin effect on IL-8 (IL-8; mevalonate 250 μM, all atorvastatin groups): reversed
effect of mevalonate cotreatment on atorvastatin effect on MCP-1 (MCP-1; highest concentration of atorvastatin plus mevalonate 250 μM): reversed
effect of mevalonate on atorvastatin effect on IL-6 (IL-6; atorvastatin plus mevalonate 250 μM): eliminated
effect of co-treatment on the effect of AT on IL-1beta-stimulated ENA-78 production (ENA-78 [2]; IL-1beta and AT 10 uM, mevalonate 250 μM, FPP 5 μM, GGPP 5 μM, FIG. 16): partially reversed

CC(C)c1c(C(=O)Nc2ccccc2)c(-c2ccccc2)c(-c2ccc(F)cc2)n1CC[C@@H](O)C[C@@H](O)CC(=O)O [atorvastatin]
reduction in ENA-78 production compared with untreated controls (ENA-78 [1]; escalating concentrations of atorvastatin (10 μM to 50 μM), 24 hours, FIG. 10A): 45-85%
ENA-78 production vs untreated control (ENA-78 [1]; lower concentrations of atorvastatin, 24 hours): not significantly altered
IL-8 concentrations lowered by (IL-8; 1st of the four atorvastatin groups (1-50 μM), 24 hours): 26%
IL-8 concentrations lowered by (IL-8; 2nd of the four atorvastatin groups (1-50 μM), 24 hours): 72%
IL-8 concentrations lowered by (IL-8; 3rd of the four atorvastatin groups (1-50 μM), 24 hours): 83%
IL-8 concentrations lowered by (IL-8; 4th of the four atorvastatin groups (1-50 μM), 24 hours): 89%
minimum effective concentration giving significant reduction in IL-8 compared with control (IL-8; 24 hours, FIG. 10B): 5 µM
IL-8 production (IL-8; atorvastatin 5 μM, 24 hours (control 551±69)): 155±45 pg/mg protein
MCP-1 concentrations vs control condition (MCP-1; concentrations of atorvastatin less than 50 μM): did not significantly differ
reduction in MCP-1 (MCP-1; highest concentration of atorvastatin (50 μM), 24 hours): 83%
MCP-1 production (MCP-1; highest concentration of atorvastatin (50 μM), 24 hours (control 4556±514)): 782±105 pg/mg protein
graded reduction of IL-6 production (IL-6; increasing concentration of atorvastatin (1-50 μM), 24 hours, FIG. 11A): 29-83%
treatment effect on IL-10 (IL-10): no treatment effect
concentrations of FGF (FGF): did not change
concentrations of G-CSF (G-CSF): did not change
HUVEC viability compared with control (HUVECs): no significant differences
ENA-78 production reduced by, compared with IL-1beta-stimulated cells in the absence of AT (ENA-78 [2]; 1st of the five AT dose groups (1, 5, 10, 25, 50 μM)): 38%
ENA-78 production reduced by, compared with IL-1beta-stimulated cells in the absence of AT (ENA-78 [2]; 2nd of the five AT dose groups (1, 5, 10, 25, 50 μM)): 70%
ENA-78 production reduced by, compared with IL-1beta-stimulated cells in the absence of AT (ENA-78 [2]; 3rd of the five AT dose groups (1, 5, 10, 25, 50 μM)): 78%
ENA-78 production reduced by, compared with IL-1beta-stimulated cells in the absence of AT (ENA-78 [2]; 4th of the five AT dose groups (1, 5, 10, 25, 50 μM)): 93%
ENA-78 production reduced by, compared with IL-1beta-stimulated cells in the absence of AT (ENA-78 [2]; 5th of the five AT dose groups (1, 5, 10, 25, 50 μM)): 99%
IL-1beta-stimulated ENA-78 production (ENA-78 [2]; AT at concentrations ≧25 uM): returned to baseline
IL-1beta-stimulated ENA-78 production (ENA-78 [2]; IL-1beta and AT 10 uM, FIG. 16): 1054 ± 349 pg/mg
time at which AT attenuation of ENA-78 production relative to IL-1beta was most pronounced (ENA-78 [2]; time course 0, 4, 12, 24, 48 hours, FIG. 15): 48 h
constitutive expression of CXCL5 (CXCL5; AT alone, 24 hours, FIG. 17): significantly lowered
CXCL5 expression compared to IL-1beta alone (CXCL5; pre-treated with 10 μM of AT followed by IL-1beta in two hours): no difference
